In US20240208992A1, “MACROCYCLES AS CFTR MODULATORS” (Idorsia Pharmaceuticals Ltd, priority 2021, published 2024):

Target: human F508del-CFTR (Homo sapiens, UniProt P13569, DEL508-508)
Experiment: F508del-CFTR cell surface expression (corrector activity), DiscoveRx ß-galactosidase complementation chemiluminescence assay in recombinant U2OS cell line;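 note: U2OS cells co-expressing ProLink-tagged F508del-CFTR and a membrane-anchored enzyme acceptor, where more surface CFTR restores β-galactosidase activity measured by chemiluminescence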
Details: for EC50: EC50, F508del-CFTR cell surface expression
[1] = U2OS cells, 16h compound incubation, geomean of several measurements
[2] = U2OS, in relation to the Emax of the corrector lumacaftor (=100%), U2OS cells, 16h compound incubation, arithmetic mean
[3] = U2OS cells, 16h compound incubation, geomean values
[4] = U2OS, in relation to Emax of corrector lumacaftor (=100%), arithmetic mean values
[5] = U2OS cell line, 16h compound incubation, geomean values
[6] = U2OS, in relation to the Emax of the corrector lumacaftor (=100%), U2OS cell line, 16h compound incubation, arithmetic mean values

Chain of human F508del-CFTR (P13569 with tags, fused parts or gaps DEL508-508): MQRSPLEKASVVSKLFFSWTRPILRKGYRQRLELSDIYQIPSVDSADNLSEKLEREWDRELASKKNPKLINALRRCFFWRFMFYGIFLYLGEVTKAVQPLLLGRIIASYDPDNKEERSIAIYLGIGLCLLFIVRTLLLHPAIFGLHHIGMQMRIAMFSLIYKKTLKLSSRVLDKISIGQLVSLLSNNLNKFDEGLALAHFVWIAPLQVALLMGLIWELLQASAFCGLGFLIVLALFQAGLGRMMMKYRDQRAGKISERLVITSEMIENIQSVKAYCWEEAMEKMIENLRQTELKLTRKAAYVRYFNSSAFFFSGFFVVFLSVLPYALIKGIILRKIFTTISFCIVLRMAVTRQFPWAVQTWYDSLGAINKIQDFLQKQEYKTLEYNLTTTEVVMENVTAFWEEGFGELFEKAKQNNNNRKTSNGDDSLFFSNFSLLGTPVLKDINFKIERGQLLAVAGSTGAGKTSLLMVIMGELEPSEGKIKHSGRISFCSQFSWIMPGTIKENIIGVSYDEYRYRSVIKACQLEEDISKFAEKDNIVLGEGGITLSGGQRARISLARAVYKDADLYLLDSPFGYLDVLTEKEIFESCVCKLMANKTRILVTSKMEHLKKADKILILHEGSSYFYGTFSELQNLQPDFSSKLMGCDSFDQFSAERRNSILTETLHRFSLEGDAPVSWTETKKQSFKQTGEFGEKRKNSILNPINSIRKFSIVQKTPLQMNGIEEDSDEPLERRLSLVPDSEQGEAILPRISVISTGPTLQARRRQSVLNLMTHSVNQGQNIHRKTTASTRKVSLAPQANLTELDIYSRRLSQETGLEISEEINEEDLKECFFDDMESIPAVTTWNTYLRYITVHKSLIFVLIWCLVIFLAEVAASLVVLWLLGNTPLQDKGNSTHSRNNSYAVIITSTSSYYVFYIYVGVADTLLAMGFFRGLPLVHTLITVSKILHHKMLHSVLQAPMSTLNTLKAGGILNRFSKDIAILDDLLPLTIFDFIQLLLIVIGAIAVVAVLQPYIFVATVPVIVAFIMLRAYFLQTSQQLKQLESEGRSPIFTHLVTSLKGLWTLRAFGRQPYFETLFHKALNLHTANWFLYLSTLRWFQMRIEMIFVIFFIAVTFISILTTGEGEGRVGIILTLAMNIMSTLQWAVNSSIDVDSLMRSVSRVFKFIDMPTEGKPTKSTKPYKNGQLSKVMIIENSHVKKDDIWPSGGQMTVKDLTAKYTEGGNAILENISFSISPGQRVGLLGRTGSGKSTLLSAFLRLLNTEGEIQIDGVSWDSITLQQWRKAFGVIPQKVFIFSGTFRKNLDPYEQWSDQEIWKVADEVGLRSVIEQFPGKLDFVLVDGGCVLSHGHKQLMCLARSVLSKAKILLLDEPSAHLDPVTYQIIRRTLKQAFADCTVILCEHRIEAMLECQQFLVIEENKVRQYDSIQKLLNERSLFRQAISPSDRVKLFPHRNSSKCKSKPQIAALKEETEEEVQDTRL

Structure (SMILES)	EC50 [1] [µM]	Emax [2] [%]	EC50 [3] [µM]	Emax [4] [%]	further results
CC(C)C[C@H]1C(=O)N(C)[C@H](C)C(=O)N[C@H](Cc2ccccc2)COc2ccc3ncc(F)cc3c2C(=O)N[C@H](C(=O)NCCc2cc(C3CC3)on2)CC(=O)N1C [Example 798, (3S,7S,10R,13R)-13-benzyl-N-(2-(5-cyclopropylisoxazol-3-yl)ethyl)-20-fluoro-7-isobutyl-6,9,10-trimethyl-1,5,8,11-tetraoxo-1,2,3,4,5,6,7,8,9,10,11,12,13,14-tetradecahydro-[1]oxa[4,7,10,14]tetraazacycloheptadecino[16,17-f]quinoline-3-carboxamide]	0.197	324	–	–	–
COc1cccc(CCNC(=O)[C@@H]2CC(=O)N(C)[C@@H](CC(C)C)C(=O)N3CCCC[C@@H]3C(=O)N[C@H](Cc3ccccc3)COc3ccc4ccccc4c3C(=O)N2)c1 [Example 603, (4aR,7R,18S,22S)-7-benzyl-22-isobutyl-N-(3-methoxyphenethyl)-21-methyl-5,16,20,23-tetraoxo-2,3,4,4a,5,6,7,8,16,17,18,19,20,21,22,23-hexadecahydro-1H-naphtho[1,2-p]pyrido[2,1-f][1]oxa[4,7,10,14]tetraazacycloheptadecine-18-carboxamide]	–	–	0.205	301	–
Cc1cc(CCNC(=O)[C@@H]2CC(=O)N(C)[C@@H](CC3CCCC3)C(=O)N3CCCC[C@H]3C(=O)N[C@H](Cc3ccccc3)COc3ccc4nc(C)oc4c3C(=O)N2)on1 [Example 437, (8S,12S,18aS,21R)-21-benzyl-12-(cyclopentylmethyl)-4,11-dimethyl-N-(2-(3-methylisoxazol-5-yl)ethyl)-6,10,13,19-tetraoxo-6,7,8,9,10,11,12,13,16,17,18,18a,19,20,21,22-hexadecahydro-15H-oxazolo[4′,5′:5,6]benzo[1,2-p]pyrido[2,1-f][1]oxa[4,7,10,14]tetraazacycloheptadecine-8-carboxamide]	–	–	0.844	159	–
CC(C)C[C@H]1C(=O)N2CCCC[C@@H]2C(=O)N[C@H](Cc2ccccc2)COc2cnc3ccc(F)cc3c2C(=O)N[C@H](C(=O)NCCc2nc(C3CC3)no2)CC(=O)N1C [Example 641, (9S,13S,19aR,22R)-22-benzyl-N-(2-(3-cyclopropyl-1,2,4-oxadiazol-5-yl)ethyl)-5-fluoro-13-isobutyl-12-methyl-7,11,14,20-tetraoxo-7,8,9,10,11,12,13,14,17,18,19,19a,20,21,22,23-hexadecahydro-16H-pyrido[2′,1′:6,7][1]oxa[4,7,10,14]tetraazacycloheptadecino[17,16-c]quinoline-9-carboxamide]	–	–	0.087	305	–
CCOCC[C@@H]1C(=O)N[C@H](Cc2ccccc2)COc2ccc3ncc(F)cc3c2C(=O)N[C@H](C(=O)NCCc2cc(C)no2)CC(=O)N(C)[C@@H](CC(C)C)C(=O)N1C [Example 894, (3S,7S,10R,13R)-13-benzyl-10-(2-ethoxyethyl)-20-fluoro-7-isobutyl-6,9-dimethyl-N-(2-(3-methylisoxazol-5-yl)ethyl)-1,5,8,11-tetraoxo-1,2,3,4,5,6,7,8,9,10,11,12,13,14-tetradecahydro-[1]oxa[4,7,10,14]tetraazacycloheptadecino[16,17-f]quinoline-3-carboxamide]	0.339	431	–	–	–
CC(C)C[C@H]1C(=O)N(C)[C@@H](CC(F)F)C(=O)N[C@H](Cc2ccccc2)COc2ccc3ncc(F)cc3c2C(=O)N[C@H](C(=O)NCCc2noc(C3CC3)n2)CC(=O)N1C [Example 802, (3S,7S,10S,13R)-13-benzyl-N-(2-(5-cyclopropyl-1,2,4-oxadiazol-3-yl)ethyl)-10-(2,2-difluoroethyl)-20-fluoro-7-isobutyl-6,9-dimethyl-1,5,8,11-tetraoxo-1,2,3,4,5,6,7,8,9,10,11,12,13,14-tetradecahydro-[1]oxa[4,7,10,14]tetraazacycloheptadecino[16,17-f]quinoline-3-carboxamide]	0.723	200	–	–	–
CC(C)C[C@H]1C(=O)N2CCCC[C@H]2C(=O)N[C@H](Cc2ccccc2)COc2cnc3c(F)cccc3c2C(=O)N[C@H](C(=O)NCCc2cc(C3CC3)no2)CC(=O)N1C [Example 500, (9S,13S,19aS,22R)-22-benzyl-N-(2-(3-cyclopropylisoxazol-5-yl)ethyl)-3-fluoro-13-isobutyl-12-methyl-7,11,14,20-tetraoxo-7,8,9,10,11,12,13,14,17,18,19,19a,20,21,22,23-hexadecahydro-16H-pyrido[2′,1′:6,7][1]oxa[4,7,10,14]tetraazacycloheptadecino[17,16-c]quinoline-9-carboxamide]	–	–	0.553	199	–
COc1nccc2c1C(=O)NC(C(=O)NCCc1cc(C3CC3)no1)CC(=O)N(C)C(CC(C)C)C(=O)N(C)C(CC1CCC(F)(F)CC1)C(=O)NC(Cc1ccccc1)CO2 (single isomer, unassigned) [Example 662]	–	–	0.124	–	Emax (in relation to Emax of corrector lumacaftor (=100%), arithmetic mean values): 297%
COc1cc(CCNC(=O)[C@@H]2CC(=O)N(C)[C@@H](CC(C)C)C(=O)N(C)[C@H](Cc3cc(OC)no3)C(=O)N[C@H](Cc3ccccc3)COc3ccc4ncc(F)cc4c3C(=O)N2)on1 [Example 880, (3S,7S,10R,13R)-13-benzyl-20-fluoro-7-isobutyl-N-(2-(3-methoxyisoxazol-5-yl)ethyl)-10-((3-methoxyisoxazol-5-yl)methyl)-6,9-dimethyl-1,5,8,11-tetraoxo-1,2,3,4,5,6,7,8,9,10,11,12,13,14-tetradecahydro-[1]oxa[4,7,10,14]tetraazacycloheptadecino[16,17-f]quinoline-3-carboxamide]	0.059	359	–	–	–
CC(C)C[C@H]1C(=O)N2CCOC[C@@H]2C(=O)N[C@H](Cc2ccccc2)COc2cnc3ccccc3c2C(=O)N[C@H](C(=O)NCCc2ccc3c(c2)OCCO3)CC(=O)N1C [Example 53, (9S,13S,19aR,22R)-22-benzyl-N-(2-(2,3-dihydrobenzo[b][1,4]dioxin-6-yl)ethyl)-13-isobutyl-12-methyl-7,11,14,20-tetraoxo-7,8,9,10,11,12,13,14,16,17,19,19a,20,21,22,23-hexadecahydro-[1,4]oxazino[3′,4′:6,7][1]oxa[4,7,10,14]tetraazacycloheptadecino[17,16-c]quinoline-9-carboxamide]	–	–	–	–	EC50 [5]: 0.596 µM; Emax [6]: 404%
COc1cccc(CCNC(=O)[C@@H]2CC(=O)N(C)[C@@H](CC(C)C)C(=O)N(C)C3(CC3)C(=O)N[C@H](Cc3ccccc3)COc3cnc(OC)cc3C(=O)N2)c1 [Example 650, (3′R,9′S,13′S)-3′-benzyl-9′-isobutyl-17′-methoxy-N-(3-methoxyphenethyl)-7′,10′-dimethyl-5′,8′,11′,15′-tetraoxo-2′,3′,4′,5′,8′,9′,10′,11′,12′,13′,14′,15′-dodecahydro-7′H-spiro[cyclopropane-1,6′-pyrido[4,3-p][1]oxa[4,7,10,14]tetraazacycloheptadecine]-13′-carboxamide]	–	–	0.596	214	–
C#Cc1nn(CCNC(=O)[C@@H]2CC(=O)N(C)[C@@H](CC(C)C)C(=O)N3CCCC[C@@H]3C(=O)N[C@H](Cc3ccccc3)COc3cc(C)nc(OC)c3C(=O)N2)nc1C [Example 834, (7S,11S,17aR,20R)-20-benzyl-N-(2-(4-ethynyl-5-methyl-2H-1,2,3-triazol-2-yl)ethyl)-11-isobutyl-4-methoxy-2,10-dimethyl-5,9,12,18-tetraoxo-5,6,7,8,9,10,11,12,15,16,17,17a,18,19,20,21-hexadecahydro-14H-dipyrido[2,1-f:3′,4′-p][1]oxa[4,7,10,14]tetraazacycloheptadecine-7-carboxamide]	0.24	300	–	–	–
CC(C)C[C@H]1C(=O)N2CCCC[C@@H]2C(=O)N[C@H](Cc2ccccc2)COc2cnc3ccccc3c2C(=O)N[C@H](C(=O)NCCc2cc(C3CC3)no2)CC(=O)N1C [Example 642, (9S,13S,19aR,22R)-22-benzyl-N-(2-(3-cyclopropylisoxazol-5-yl)ethyl)-13-isobutyl-12-methyl-7,11,14,20-tetraoxo-7,8,9,10,11,12,13,14,17,18,19,19a,20,21,22,23-hexadecahydro-16H-pyrido[2′,1′:6,7][1]oxa[4,7,10,14]tetraazacycloheptadecino[17,16-c]quinoline-9-carboxamide]	–	–	0.168	366	–
COc1cccc(CCNC(=O)[C@@H]2CC(=O)N(C)[C@@H](CC(C)C)C(=O)N(CCC3CCCCC3)CC(=O)N[C@H](Cc3ccccc3)COc3ccc4c(c3C(=O)N2)OCO4)c1 [Example 346, (8R,14S,18S)-8-benzyl-12-(2-cyclohexylethyl)-14-isobutyl-N-(3-methoxyphenethyl)-15-methyl-10,13,16,20-tetraoxo-7,8,9,10,11,12,13,14,15,16,17,18,19,20-tetradecahydro-[1,3]dioxolo[4′,5′:5,6]benzo[1,2-p][1]oxa[4,7,10,14]tetraazacycloheptadecine-18-carboxamide]	–	–	–	–	EC50 [5]: 0.106 µM; Emax [6]: 282%
Cc1cc(CCNC(=O)[C@@H]2CC(=O)N(C)[C@@H](CC(C)C)C(=O)N3CCCC[C@@H]3C(=O)N[C@H](Cc3ccccc3)COc3cnc4cccc(F)c4c3C(=O)N2)on1 [Example 534, (9S,13S,19aR,22R)-22-benzyl-6-fluoro-13-isobutyl-12-methyl-N-(2-(3-methylisoxazol-5-yl)ethyl)-7,11,14,20-tetraoxo-7,8,9,10,11,12,13,14,17,18,19,19a,20,21,22,23-hexadecahydro-16H-pyrido[2′,1′:6,7][1]oxa[4,7,10,14]tetraazacycloheptadecino[17,16-c]quinoline-9-carboxamide]	–	–	0.273	394	–
